This assay has as its target T1, SMARCA2 (Homo sapiens, UniProt P51531).
T1 construct: endogenous in cells; host or cells: HT1080 (CRISPR HiBiT knock-in clone, generated in house)
Briefly: SMARCA2 HiBiT degradation assay (cellular). Particulars: table head names A549; for DC50: 6 h incubation, HiBiT-tagged SMARCA2, luminescence read-out, read-out: HiBit A549 SMARCA2 IP (nM) 6 h; for Emax: A549, 6 h incubation, Emax = amount of residual protein remaining in the cell following compound treatment. The format is cell-based. A general note: With HiBiT, luminescence reflects the tagged protein that the partner subunit can reach.

SMILES strings stand for the structures.

T1 sequence (P51531 whole entry): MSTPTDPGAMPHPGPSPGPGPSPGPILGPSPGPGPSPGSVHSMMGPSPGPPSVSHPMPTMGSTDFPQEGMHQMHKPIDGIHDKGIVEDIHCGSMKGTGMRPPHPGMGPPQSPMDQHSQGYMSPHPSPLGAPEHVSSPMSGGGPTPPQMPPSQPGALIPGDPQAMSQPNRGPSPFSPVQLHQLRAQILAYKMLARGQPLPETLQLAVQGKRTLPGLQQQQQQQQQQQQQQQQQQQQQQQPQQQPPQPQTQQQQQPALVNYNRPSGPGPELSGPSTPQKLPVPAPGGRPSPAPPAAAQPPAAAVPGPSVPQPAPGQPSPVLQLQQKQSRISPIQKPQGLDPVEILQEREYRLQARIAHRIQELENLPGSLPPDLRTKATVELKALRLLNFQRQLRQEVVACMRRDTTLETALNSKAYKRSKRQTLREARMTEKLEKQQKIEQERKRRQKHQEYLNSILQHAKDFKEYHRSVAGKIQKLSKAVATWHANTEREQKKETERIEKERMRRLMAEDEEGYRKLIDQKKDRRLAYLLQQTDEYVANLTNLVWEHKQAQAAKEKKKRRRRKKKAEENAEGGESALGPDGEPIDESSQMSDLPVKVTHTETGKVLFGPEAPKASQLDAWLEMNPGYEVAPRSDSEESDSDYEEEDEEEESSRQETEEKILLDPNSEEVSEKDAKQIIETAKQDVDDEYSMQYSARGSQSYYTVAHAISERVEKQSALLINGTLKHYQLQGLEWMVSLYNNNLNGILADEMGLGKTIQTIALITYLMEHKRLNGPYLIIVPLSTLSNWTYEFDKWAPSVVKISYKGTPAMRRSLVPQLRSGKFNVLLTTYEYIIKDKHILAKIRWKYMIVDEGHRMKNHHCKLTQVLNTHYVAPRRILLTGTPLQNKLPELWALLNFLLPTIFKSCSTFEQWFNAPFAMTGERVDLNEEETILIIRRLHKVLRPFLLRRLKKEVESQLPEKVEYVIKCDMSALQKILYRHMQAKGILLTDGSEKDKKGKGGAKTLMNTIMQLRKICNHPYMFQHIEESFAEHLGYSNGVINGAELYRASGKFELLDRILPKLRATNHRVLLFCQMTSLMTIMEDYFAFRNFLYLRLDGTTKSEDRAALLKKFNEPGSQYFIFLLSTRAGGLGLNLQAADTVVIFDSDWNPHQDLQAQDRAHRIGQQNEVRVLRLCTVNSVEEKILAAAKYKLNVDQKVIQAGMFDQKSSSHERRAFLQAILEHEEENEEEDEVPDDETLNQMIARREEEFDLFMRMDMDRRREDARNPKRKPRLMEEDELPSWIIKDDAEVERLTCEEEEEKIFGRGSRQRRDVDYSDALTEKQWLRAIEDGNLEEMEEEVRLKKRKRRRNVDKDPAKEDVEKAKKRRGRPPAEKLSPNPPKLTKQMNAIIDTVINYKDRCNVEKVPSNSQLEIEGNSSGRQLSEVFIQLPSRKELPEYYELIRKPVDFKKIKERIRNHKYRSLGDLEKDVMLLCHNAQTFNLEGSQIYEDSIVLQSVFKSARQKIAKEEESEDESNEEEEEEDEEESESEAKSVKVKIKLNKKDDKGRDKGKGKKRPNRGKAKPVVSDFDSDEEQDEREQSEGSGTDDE

Usually Emax stands for the size of the effect at its maximum, as opposed to the concentration needed. Regarding `Nc1nnc(-c2ccccc2O)cc1N1CC2CCC(C1)N2c1cccc(OCCN2CCN(C(=O)C3CC4(C3)CN(c3ccc5c(c3)C(=O)N(C3CCC(=O)NC3=O)C5=O)C4)CC2)c1` (racemic) [Example 61, rac-5-[6-[4-[2-[3-[3-[3-amino-6-(2-hydroxyphenyl)pyridazin-4-yl]-3,8-diazabicyclo[3.2.1]octan-8-yl]phenoxy]ethyl]piperazine-1-carbonyl]-2-azaspiro[3.3]heptan-2-yl]-2-(2,6-dioxo-3-piperidyl)isoindoline-1,3-dione], the DC50 came out at 100 nM and the Emax is 53%.

`Nc1nnc(-c2ccccc2O)cc1N1CC2CCC(C1)N2c1cccc(OCCN2CCN(C(=O)C3CCN(c4ccc5c(c4)C(=O)N(C4CCC(=O)NC4=O)C5=O)CC3)CC2)c1` (racemic) [Example 142, rac-5-[4-[4-[2-[3-[3-[3-amino-6-(2-hydroxyphenyl)pyridazin-4-yl]-3,8-diazabicyclo[3.2.1]octan-8-yl]phenoxy]ethyl]piperazine-1-carbonyl]-1-piperidyl]-2-(2,6-dioxo-3-piperidyl)isoindoline-1,3-dione]: the DC50 was 2 nM and the Emax came out at 14%.

Turning to `Nc1nnc(-c2ccccc2O)cc1OC1CCCN(c2ccc(N3CCN(C(=O)CCCCCCCCN4CCN(c5ccc6c(c5)C(=O)N(C5CCC(=O)NC5=O)C6=O)CC4)CC3)cc2)C1` (stereo not shown) [Example 26, 5-[4-[9-[4-[4-[3-[3-amino-6-(2-hydroxyphenyl)pyridazin-4-yl]oxy-1-piperidyl]phenyl]piperazin-1-yl]-9-oxo-nonyl]piperazin-1-yl]-2-(2,6-dioxo-3-piperidyl)isoindoline-1,3-dione], the DC50 worked out at 164 nM and the Emax was found to be 63%.

Consider `Nc1nnc(-c2ccccc2O)cc1N1CC2CCC(C1)N2c1cccc(CN2CCN(C(=O)CCC3CCN(c4ccc5c(c4)C(=O)N(C4CCC(=O)NC4=O)C5=O)CC3)CC2)c1` (racemic) [Example 47, rac-5-[4-[3-[4-[[3-[3-[3-Amino-6-(2-hydroxyphenyl)pyridazin-4-yl]-3,8-diazabicyclo[3.2.1]octan-8-yl]phenyl]methyl]piperazin-1-yl]-3-oxo-propyl]-1-piperidyl]-2-(2,6-dioxo-3-piperidyl)isoindoline-1,3-dione], for which the DC50 was determined as 17 nM and the Emax was 42%.

With `Nc1nnc(-c2ccccc2O)cc1N1CC(Oc2cccc(N3CCN(C(=O)C4CCN(c5ccc6c(c5)C(=O)N(C5CCC(=O)NC5=O)C6=O)CC4)CC3)c2)C1` (racemic) [Example 152, rac-5-[4-[4-[3-[1-[3-amino-6-(2-hydroxyphenyl)pyridazin-4-yl]azetidin-3-yl]oxyphenyl]piperazine-1-carbonyl]-1-piperidyl]-2-(2,6-dioxo-3-piperidyl)isoindoline-1,3-dione], the DC50 worked out at 5 nM and the Emax stood at 42%.

Take `Nc1nnc(-c2ccccc2O)cc1OC1CCCN(c2ccc(N3CCN(C(=O)CCCCCCCCCn4cc(CNc5cccc6c5C(=O)N(C5CCC(=O)NC5=O)C6=O)nn4)CC3)cc2)C1` (stereo not shown) [Example 28, 4-[[1-[10-[4-[4-[3-[3-amino-6-(2-hydroxyphenyl)pyridazin-4-yl]oxy-1-piperidyl]phenyl]piperazin-1-yl]-10-oxo-decyl]triazol-4-yl]methylamino]-2-(2,6-dioxo-3-piperidyl)isoindoline-1,3-dione]: the DC50 was found to be 91 nM and the Emax turned out to be 48%.

With `Nc1nnc(-c2ccccc2O)cc1N1CC2CCC(C1)N2c1cc(F)cc(CN2CCN(C(=O)C3CCN(c4ccc5c(c4)C(=O)N(C4CCC(=O)NC4=O)C5=O)CC3)CC2)c1` (racemic) [Example 193, rac-5-[4-[4-[[3-[3-[3-Amino-6-(2-hydroxyphenyl)pyridazin-4-yl]-3,8-diazabicyclo[3.2.1]octan-8-yl]-5-fluoro-phenyl]methyl]piperazine-1-carbonyl]-1-piperidyl]-2-(2,6-dioxo-3-piperidyl)isoindoline-1,3-dione], the DC50 is 51 nM and the Emax was 25%.

In the case of `Nc1nnc(-c2ccccc2O)cc1N1CC2CCC(C1)N2c1cccc(OCCN2CCN(C(=O)CC3CCN(c4ccc5c(c4)C(=O)N(C4CCC(=O)NC4=O)C5=O)CC3)CC2)c1` (racemic) [Example 33, rac-5-[4-[2-[4-[2-[3-[3-[3-amino-6-(2-hydroxyphenyl)pyridazin-4-yl]-3,8-diazabicyclo[3.2.1]octan-8-yl]phenoxy]ethyl]piperazin-1-yl]-2-oxo-ethyl]-1-piperidyl]-2-(2,6-dioxo-3-piperidyl)isoindoline-1,3-dione], the DC50 worked out at 15 nM and the Emax was 39%.

Consider `Nc1nnc(-c2ccccc2O)cc1N1CCC(C(=O)N2CC3(CN(C(=O)C4CCN(c5ccc6c(c5)C(=O)N(C5CCC(=O)NC5=O)C6=O)CC4)C3)C2)(c2ccccc2)CC1` (stereo not shown) [Example 121, 5-(4-(6-(1-(3-amino-6-(2-hydroxyphenyl)pyridazin-4-yl)-4-phenylpiperidine-4-carbonyl)-2,6-diazaspiro[3.3]heptane-2-carbonyl)piperidin-1-yl)-2-(2,6-dioxopiperidin-3-yl)isoindoline-1,3-dione], for which the DC50 came to 47 nM and the Emax came to 26%.

`Nc1nnc(-c2ccccc2O)cc1N1CCC(C(=O)N2CC3(CCN(C(=O)CC4CCN(c5ccc6c(c5)C(=O)N(C5CCC(=O)NC5=O)C6=O)CC4)CC3)C2)(c2ccccc2)CC1` (stereo not shown) [Example 164, 5-(4-(2-(2-(1-(3-amino-6-(2-hydroxyphenyl)pyridazin-4-yl)-4-phenylpiperidine-4-carbonyl)-2,7-diazaspiro[3.5]nonan-7-yl)-2-oxoethyl)piperidin-1-yl)-2-(2,6-dioxopiperidin-3-yl)isoindoline-1,3-dione]: the DC50 was 42 nM and the Emax came out at 50%.

As to `Nc1nnc(-c2ccccc2O)cc1N1CC2CCC(C1)N2c1cccc(OCCN2CCN(C(=O)CCC3CCN(c4ccc5c(c4)C(=O)N(C4CCC(=O)NC4=O)C5=O)CC3)CC2)c1` (racemic) [Example 14, rac-5-[4-[3-[4-[2-[3-[3-[3-amino-6-(2-hydroxyphenyl)pyridazin-4-yl]-3,8-diazabicyclo[3.2.1]octan-8-yl]phenoxy]ethyl]piperazin-1-yl]-3-oxo-propyl]-1-piperidyl]-2-(2,6-dioxo-3-piperidyl)isoindoline-1,3-dione], the DC50 is 31 nM and the Emax was determined as 45%.

Take `Nc1nnc(-c2ccccc2O)cc1OCC(CNC(=O)CN1CCC(c2ccc(OC3CCC(=O)NC3=O)cc2)CC1)c1ccccc1` (racemic) [Example 98, N-[3-[3-amino-6-(2-hydroxyphenyl)pyridazin-4-yl]oxy-2-phenyl-propyl]-2-[4-[4-[(2,6-dioxo-3-piperidyl)oxy]phenyl]-1-piperidyl]acetamide;2,2,2-trifluoroacetic acid (racemic mixture of diastereomers)]: the DC50 came to 182 nM and the maximum response (Emax) was found to be 63%.

As to `Nc1nnc(-c2ccccc2O)cc1N1CC2CCC(C1)N2c1cccc(OCCN2CCN(C(=O)CCC(=O)N3CCN(Cc4cccc5c4C(=O)N(C4CCC(=O)NC4=O)C5=O)CC3)CC2)c1` (racemic) [Example 22, rac-4-[[4-[4-[4-[2-[3-[3-[3-amino-6-(2-hydroxyphenyl)pyridazin-4-yl]-3,8-diazabicyclo[3.2.1]octan-8-yl]phenoxy]ethyl]piperazin-1-yl]-4-oxo-butanoyl]piperazin-1-yl]methyl]-2-(2,6-dioxo-3-piperidyl)isoindoline-1,3-dione], the DC50 came to 212 nM and the Emax was 28%.

Take `CC(Nc1cccc2c1C(=O)N(C1CCC(=O)NC1=O)C2=O)c1cn(CCCCCCCCCN2CCN(c3ccc(N4CCCC(Oc5cc(-c6ccccc6O)nnc5N)C4)cc3)CC2)nn1` (stereo not shown) [Example 89, 4-[1-[1-[9-[4-[4-[3-[3-amino-6-(2-hydroxyphenyl)pyridazin-4-yl]oxy-1-piperidyl]phenyl]piperazin-1-yl]nonyl]triazol-4-yl]ethylamino]-2-(2,6-dioxo-3-piperidyl)isoindoline-1,3-dione]: the DC50 amounted to 55 nM and the Emax came to 30%.

Regarding `Nc1nnc(-c2ccccc2O)cc1N1CC2CCC(C1)N2c1cccc(OC2CCC(CC(=O)N3CC4(C3)CN(C(=O)C3CCN(c5ccc6c(c5)C(=O)N(C5CCC(=O)NC5=O)C6=O)CC3)C4)CC2)c1` (racemic) [Example 31, rac-5-[4-[6-[2-[4-[3-[3-[3-amino-6-(2-hydroxyphenyl)pyridazin-4-yl]-3,8-diazabicyclo[3.2.1]octan-8-yl]phenoxy]cyclohexyl]acetyl]-2,6-diazaspiro[3.3]heptane-2-carbonyl]-1-piperidyl]-2-(2,6-dioxo-3-piperidyl)isoindoline-1,3-dione], the DC50 is 383 nM and the Emax worked out at 55%.

Regarding `Nc1nnc(-c2ccccc2O)cc1N1CC2CCC(C1)N2c1cccc(CC2CCN(C(=O)C3CCN(c4ccc5c(c4)C(=O)N(C4CCC(=O)NC4=O)C5=O)CC3)CC2)c1` (racemic) [Example 70, rac-5-[4-[4-[[3-[3-[3-amino-6-(2-hydroxyphenyl)pyridazin-4-yl]-3,8-diazabicyclo[3.2.1]octan-8-yl]phenyl]methyl]piperidine-1-carbonyl]-1-piperidyl]-2-(2,6-dioxo-3-piperidyl)isoindoline-1,3-dione], the DC50 turned out to be 40 nM and the Emax is 42%.

As for `CC(Oc1cccc2c1C(=O)N(C1CCC(=O)NC1=O)C2=O)c1cn(CCCCCCCCCN2CCN(c3ccc(N4CCC[C@H](Oc5cc(-c6ccccc6O)nnc5N)C4)cc3)CC2)nn1` (mixture of isomers) [Example 126, 2-(2,6-dioxo-3-piperidyl)-4-[1-[1-[9-[4-[4-[rac-(3S)-3-[3-amino-6-(2-hydroxyphenyl)pyridazin-4-yl]oxy-1-piperidyl]phenyl]piperazin-1-yl]nonyl]triazol-4-yl]ethoxy]isoindoline-1,3-dione], the DC50 came to 73 nM and the Emax came out at 26%.

(Values after patent US20230024096A1, “BIFUNCTIONAL COMPOUNDS FOR THE TREATMENT OF CANCER” (Hoffmann-La Roche Inc., priority 2019, published 2023).)
